Tests used:
[1] = target: Sodium-dependent serotonin transporter (Homo sapiens, UniProt P31645); assay: Inhibition of [3H]5HT reuptake at human serotonin transporter expressed in HEK293 cells by scintillation counting; format: cell-based
[2] = target: Sodium-dependent noradrenaline transporter (Homo sapiens, UniProt P23975)
Description: Inhibition of [3H]NA reuptake in human noradrenaline transporter expressed in HEK293 cells by scintillation counting

[3] = target: Sodium-dependent dopamine transporter (Homo sapiens, UniProt Q01959); assay: Inhibition of [3H]DA reuptake at human dopamine transporter expressed in HEK293 cells by scintillation counting; format: cell-based
Chain of Sodium-dependent dopamine transporter (Q01959 whole entry): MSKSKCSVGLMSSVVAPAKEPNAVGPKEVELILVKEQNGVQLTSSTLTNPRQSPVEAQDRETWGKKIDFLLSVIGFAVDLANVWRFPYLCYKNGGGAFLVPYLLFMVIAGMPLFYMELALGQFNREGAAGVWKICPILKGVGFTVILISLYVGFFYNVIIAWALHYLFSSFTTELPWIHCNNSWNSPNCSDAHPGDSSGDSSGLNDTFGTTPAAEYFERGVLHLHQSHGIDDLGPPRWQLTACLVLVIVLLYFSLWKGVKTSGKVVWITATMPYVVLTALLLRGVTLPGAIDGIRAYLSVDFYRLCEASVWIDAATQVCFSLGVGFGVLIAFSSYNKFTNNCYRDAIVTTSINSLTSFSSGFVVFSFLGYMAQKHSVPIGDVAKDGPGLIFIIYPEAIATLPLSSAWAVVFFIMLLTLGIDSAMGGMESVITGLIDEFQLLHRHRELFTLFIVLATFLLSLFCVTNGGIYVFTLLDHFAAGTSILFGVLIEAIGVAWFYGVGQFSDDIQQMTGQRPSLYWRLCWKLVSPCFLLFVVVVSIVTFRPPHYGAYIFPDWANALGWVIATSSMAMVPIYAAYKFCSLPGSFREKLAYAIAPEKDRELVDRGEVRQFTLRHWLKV

in vitro = settings: human, hepatocytes
Description: Intrinsic clearance in human hepatocytes assessed per million cells

Cytochrome P450 3A4 = Cytochrome P450 3A4 (Homo sapiens, UniProt P08684); assay: Inhibition of CYP3A4; format: ADME
Chain of Cytochrome P450 3A4 (P08684 whole entry): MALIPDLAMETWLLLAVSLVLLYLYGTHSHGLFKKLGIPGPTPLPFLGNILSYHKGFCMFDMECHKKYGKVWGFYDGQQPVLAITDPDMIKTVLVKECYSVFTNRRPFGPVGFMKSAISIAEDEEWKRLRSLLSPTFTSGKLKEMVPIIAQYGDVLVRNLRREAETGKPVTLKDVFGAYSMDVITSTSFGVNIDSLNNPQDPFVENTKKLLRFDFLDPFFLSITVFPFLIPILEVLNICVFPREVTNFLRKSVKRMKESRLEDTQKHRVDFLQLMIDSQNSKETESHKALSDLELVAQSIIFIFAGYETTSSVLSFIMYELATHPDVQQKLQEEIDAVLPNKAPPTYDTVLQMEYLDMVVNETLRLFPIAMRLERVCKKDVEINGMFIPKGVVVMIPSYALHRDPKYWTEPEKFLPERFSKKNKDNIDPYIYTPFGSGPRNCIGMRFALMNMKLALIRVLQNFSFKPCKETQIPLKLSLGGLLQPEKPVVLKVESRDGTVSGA

[4] = target: Voltage-gated inwardly rectifying potassium channel KCNH2 (Homo sapiens, UniProt Q12809); assay: Inhibition of human ERG potassium channel
Chain of Voltage-gated inwardly rectifying potassium channel KCNH2 (Q12809 whole entry): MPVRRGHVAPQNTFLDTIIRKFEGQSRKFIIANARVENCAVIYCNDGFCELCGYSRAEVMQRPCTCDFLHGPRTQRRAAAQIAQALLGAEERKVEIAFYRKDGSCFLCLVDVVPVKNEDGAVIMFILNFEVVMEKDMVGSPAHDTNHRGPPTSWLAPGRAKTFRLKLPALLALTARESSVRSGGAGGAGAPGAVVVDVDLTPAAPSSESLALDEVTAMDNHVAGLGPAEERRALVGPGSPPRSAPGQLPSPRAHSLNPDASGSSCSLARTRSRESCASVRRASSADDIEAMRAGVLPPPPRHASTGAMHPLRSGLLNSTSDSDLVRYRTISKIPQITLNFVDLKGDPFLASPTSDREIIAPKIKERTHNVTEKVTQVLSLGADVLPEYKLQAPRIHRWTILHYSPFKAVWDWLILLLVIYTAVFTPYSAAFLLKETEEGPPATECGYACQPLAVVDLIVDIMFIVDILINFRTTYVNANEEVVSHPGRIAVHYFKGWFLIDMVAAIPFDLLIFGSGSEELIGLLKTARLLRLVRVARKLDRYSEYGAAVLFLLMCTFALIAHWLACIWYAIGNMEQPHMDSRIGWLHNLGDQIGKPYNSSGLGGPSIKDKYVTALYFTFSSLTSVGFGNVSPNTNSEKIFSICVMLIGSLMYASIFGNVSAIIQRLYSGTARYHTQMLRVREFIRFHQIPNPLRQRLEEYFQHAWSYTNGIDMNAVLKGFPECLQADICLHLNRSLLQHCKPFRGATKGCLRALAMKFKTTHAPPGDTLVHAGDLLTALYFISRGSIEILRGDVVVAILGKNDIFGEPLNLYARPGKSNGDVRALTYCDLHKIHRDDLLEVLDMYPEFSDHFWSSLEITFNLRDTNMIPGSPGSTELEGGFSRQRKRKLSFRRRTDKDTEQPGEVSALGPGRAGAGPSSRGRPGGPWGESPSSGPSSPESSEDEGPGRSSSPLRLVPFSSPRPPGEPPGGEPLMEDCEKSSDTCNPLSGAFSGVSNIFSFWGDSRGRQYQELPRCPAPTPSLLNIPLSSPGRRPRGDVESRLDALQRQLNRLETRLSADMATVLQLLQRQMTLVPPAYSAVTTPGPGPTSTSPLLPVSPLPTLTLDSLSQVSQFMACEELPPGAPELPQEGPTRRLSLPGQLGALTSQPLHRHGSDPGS

[5] = Dissociation constant, pKa of the compound; format: physicochemical
[6] = Half life in dog at 0.01 mg/kg, iv; format: ADME, organism-based, Canis lupus familiaris; design: dose 0.01 mg/kg, route intravenous; settings: in vivo
[7] = Clearance in dog at 0.01 mg/kg, iv; format: ADME, organism-based, Canis lupus familiaris; design: dose 0.01 mg/kg, route intravenous; settings: in vivo
[8] = Volume of distribution in dog at 0.01 mg/kg, iv; format: ADME, organism-based, Canis lupus familiaris; design: dose 0.01 mg/kg, route intravenous; settings: in vivo
Cytochrome P450 1A2 = target: T1, Cytochrome P450 1A2 (Homo sapiens, UniProt P05177); assay: Inhibition of CYP1A2; format: ADME
T1 sequence (P05177 whole entry): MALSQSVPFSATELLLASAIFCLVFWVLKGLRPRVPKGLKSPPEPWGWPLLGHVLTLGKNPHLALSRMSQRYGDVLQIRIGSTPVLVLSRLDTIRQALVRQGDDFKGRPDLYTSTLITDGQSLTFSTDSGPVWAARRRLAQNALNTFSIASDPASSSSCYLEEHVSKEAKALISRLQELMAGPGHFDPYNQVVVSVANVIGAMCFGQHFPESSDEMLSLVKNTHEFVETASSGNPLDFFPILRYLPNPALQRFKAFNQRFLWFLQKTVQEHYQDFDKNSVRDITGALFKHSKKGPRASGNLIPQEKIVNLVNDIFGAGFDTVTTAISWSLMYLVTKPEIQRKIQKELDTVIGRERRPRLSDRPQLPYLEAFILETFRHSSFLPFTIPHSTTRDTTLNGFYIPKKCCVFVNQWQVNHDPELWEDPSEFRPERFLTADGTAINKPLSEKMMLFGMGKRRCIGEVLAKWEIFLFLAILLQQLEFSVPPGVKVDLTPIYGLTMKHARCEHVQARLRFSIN

[9] = Half life in dog at 0.013 mg/kg, po; format: ADME, organism-based, Canis lupus familiaris; design: dose 0.013 mg/kg, route oral; settings: in vivo
[10] = Metabolic stability assessed as half life in human liver microsomes; format: ADME, Microsome
[11] = Bioavailability in dog at 0.013 mg/kg, po; format: ADME, organism-based, Canis lupus familiaris; settings: in vivo
Cytochrome P450 2C9 = Cytochrome P450 2C9 (Homo sapiens, UniProt P11712); assay: Inhibition of CYP2C9; format: ADME
Chain of Cytochrome P450 2C9 (P11712 whole entry): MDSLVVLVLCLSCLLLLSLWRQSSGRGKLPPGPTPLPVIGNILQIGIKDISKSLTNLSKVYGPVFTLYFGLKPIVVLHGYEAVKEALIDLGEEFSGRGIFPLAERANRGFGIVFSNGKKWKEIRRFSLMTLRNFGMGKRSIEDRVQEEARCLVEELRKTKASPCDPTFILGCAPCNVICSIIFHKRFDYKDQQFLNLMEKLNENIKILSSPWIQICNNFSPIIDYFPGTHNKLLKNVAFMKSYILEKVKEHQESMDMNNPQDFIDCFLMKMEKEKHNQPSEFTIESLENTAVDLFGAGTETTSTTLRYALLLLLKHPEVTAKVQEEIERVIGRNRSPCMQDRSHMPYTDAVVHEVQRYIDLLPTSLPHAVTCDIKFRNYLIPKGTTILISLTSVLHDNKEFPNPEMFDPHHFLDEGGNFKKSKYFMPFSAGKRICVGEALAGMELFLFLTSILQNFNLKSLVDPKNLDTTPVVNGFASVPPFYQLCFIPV

[12] = Metabolic stability assessed as half life in dog liver microsomes; format: ADME, Canis lupus familiaris, Microsome
[13] = Distribution coefficient, log D at pH 7.4; format: physicochemical; settings: octanol/water
Cytochrome P450 2D6 = Cytochrome P450 2D6 (Homo sapiens, UniProt P10635); assay: Inhibition of CYP2D6; format: ADME
Chain of Cytochrome P450 2D6 (P10635 whole entry): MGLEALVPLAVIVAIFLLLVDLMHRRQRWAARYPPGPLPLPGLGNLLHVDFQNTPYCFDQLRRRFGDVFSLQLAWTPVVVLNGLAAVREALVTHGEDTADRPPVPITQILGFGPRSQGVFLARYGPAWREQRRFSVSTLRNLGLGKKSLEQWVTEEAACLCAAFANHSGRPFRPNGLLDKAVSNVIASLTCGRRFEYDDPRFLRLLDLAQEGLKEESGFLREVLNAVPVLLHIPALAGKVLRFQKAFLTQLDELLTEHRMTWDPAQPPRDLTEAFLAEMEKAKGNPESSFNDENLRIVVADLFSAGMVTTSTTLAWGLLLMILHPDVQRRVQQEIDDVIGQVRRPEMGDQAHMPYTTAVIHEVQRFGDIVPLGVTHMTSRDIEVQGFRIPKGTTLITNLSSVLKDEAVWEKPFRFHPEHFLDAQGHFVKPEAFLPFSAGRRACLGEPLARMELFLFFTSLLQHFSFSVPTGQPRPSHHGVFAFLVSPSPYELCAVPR

Cytochrome P450 2C19 = Cytochrome P450 2C19 (Homo sapiens, UniProt P33261); assay: Inhibition of CYP2C19; format: ADME
Chain of Cytochrome P450 2C19 (P33261 whole entry): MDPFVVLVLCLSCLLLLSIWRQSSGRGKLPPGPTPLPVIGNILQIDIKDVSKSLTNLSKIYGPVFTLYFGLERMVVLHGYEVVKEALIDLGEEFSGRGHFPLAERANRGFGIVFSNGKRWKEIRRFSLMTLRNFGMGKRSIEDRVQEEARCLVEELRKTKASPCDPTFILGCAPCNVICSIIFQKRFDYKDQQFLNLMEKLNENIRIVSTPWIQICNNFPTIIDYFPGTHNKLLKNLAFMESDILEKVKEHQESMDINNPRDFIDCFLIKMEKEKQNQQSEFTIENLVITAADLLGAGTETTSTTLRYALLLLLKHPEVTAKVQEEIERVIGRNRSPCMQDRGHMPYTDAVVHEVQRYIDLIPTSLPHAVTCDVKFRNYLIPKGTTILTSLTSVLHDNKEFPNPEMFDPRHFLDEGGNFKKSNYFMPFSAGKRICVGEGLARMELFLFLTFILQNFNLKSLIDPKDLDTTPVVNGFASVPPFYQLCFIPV

Chain of Sodium-dependent noradrenaline transporter (P23975 whole entry): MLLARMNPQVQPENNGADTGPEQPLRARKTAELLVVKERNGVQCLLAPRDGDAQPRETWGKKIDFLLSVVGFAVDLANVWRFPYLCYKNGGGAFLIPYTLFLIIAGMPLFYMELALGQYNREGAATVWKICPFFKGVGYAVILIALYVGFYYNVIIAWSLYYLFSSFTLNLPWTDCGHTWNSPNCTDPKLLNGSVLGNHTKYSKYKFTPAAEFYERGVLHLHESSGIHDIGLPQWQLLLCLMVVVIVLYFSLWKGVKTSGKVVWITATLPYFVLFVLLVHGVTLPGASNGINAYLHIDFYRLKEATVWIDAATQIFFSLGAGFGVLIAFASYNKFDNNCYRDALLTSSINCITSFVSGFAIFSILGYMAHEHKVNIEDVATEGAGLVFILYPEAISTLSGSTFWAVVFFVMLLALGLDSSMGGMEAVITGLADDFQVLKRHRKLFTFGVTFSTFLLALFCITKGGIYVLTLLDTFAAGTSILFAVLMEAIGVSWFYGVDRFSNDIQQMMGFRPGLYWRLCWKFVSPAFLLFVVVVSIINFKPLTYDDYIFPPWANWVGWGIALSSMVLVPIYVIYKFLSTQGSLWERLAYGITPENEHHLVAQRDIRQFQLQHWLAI
Chain of Sodium-dependent serotonin transporter (P31645 whole entry): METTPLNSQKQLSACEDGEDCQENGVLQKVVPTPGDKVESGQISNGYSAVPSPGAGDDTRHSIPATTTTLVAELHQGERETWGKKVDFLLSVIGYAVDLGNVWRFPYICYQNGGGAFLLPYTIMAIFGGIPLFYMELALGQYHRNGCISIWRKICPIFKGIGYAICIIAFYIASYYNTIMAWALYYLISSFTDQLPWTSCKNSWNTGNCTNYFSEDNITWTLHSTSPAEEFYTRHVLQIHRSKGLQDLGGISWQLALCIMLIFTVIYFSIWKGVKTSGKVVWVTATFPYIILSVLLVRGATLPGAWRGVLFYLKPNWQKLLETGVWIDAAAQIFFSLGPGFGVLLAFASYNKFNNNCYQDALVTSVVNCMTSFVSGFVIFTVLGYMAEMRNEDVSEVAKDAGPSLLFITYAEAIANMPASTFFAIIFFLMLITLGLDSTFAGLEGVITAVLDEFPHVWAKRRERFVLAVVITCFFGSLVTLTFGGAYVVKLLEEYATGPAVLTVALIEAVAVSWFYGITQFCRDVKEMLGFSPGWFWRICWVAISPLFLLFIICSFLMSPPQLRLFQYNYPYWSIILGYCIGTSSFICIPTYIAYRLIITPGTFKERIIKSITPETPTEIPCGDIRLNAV

IC50 [1] [nM] | IC50 [2] [nM] | Structure (SMILES) | also measured
26 | > 322 | CC(C)(C)C(=O)N(Cc1cccc(Cl)c1Cl)[C@H]1CCNC1 | 
17 | 62 | CC(C)CC(=O)N(Cc1cccc(Cl)c1Cl)[C@H]1CCNC1 | 
41 | 92 | CC(C)(C)C(=O)N(Cc1ccc(Cl)cc1Cl)[C@H]1CCNC1 | 
5 |  | CC(C)C(=O)N(Cc1cccc(Cl)c1Cl)[C@@H]1CCNC1 | IC50 [3]: 1120 nM
72 | 31 | CCCC(=O)N(Cc1ccc(Cl)cc1Cl)[C@H]1CCNC1 | 
27 | 39 | CC(C)(C)CC(=O)N(Cc1ccc(Cl)cc1Cl)[C@H]1CCNC1 | IC50 [3]: 10200 nM
93 | 31 | CC(C)CC(=O)N(Cc1ccc(Cl)cc1Cl)[C@H]1CCNC1 | 
195 | 94 | O=C(c1ccccc1)N(Cc1ccc(Cl)cc1Cl)[C@H]1CCNC1 | 
> 400 | 14 | CC(C)C(=O)N(Cc1ccccc1-c1ccccc1)[C@H]1CCNC1 | 
 |  | CC(C)C(=O)N(Cc1cccc(Cl)c1Cl)[C@H]1CCNC1 | hepatocyte CLint (in vitro): 2.7 µL/min/1e6 cells; IC50 (Cytochrome P450 3A4): 17900 nM; IC50 [4]: 24700 nM; pKa [5]: 9.4; half-life [6]: 5.7 h; clearance [7]: 1.1 mL/min/kg; IC50 [3]: 1270 nM; Vd [8]: 0.5 L/kg; Activity (Cytochrome P450 1A2): Not Active; half-life [9]: 5.7 h; half-life [10]: > 2 h; bioavailability [11]: 91%; Activity (Cytochrome P450 2C9): Not Active; half-life [12]: 0.583 h; logD [13]: 0.8; IC50 (Cytochrome P450 2D6): 27100 nM; Activity (Cytochrome P450 2C19): Not Active
5 | 16 | CC(C)C(=O)N(Cc1ccc(Cl)c(Cl)c1Cl)[C@H]1CCNC1 | hepatocyte CLint (in vitro): 8.8 µL/min/1e6 cells; IC50 [4]: > 6870 nM; IC50 [3]: 5870 nM; half-life [10]: > 2 h; logD [13]: 1.3; IC50 (Cytochrome P450 2D6): 17600 nM
44 | 29 | CC(C)C(=O)N(Cc1cc(Cl)cc(Cl)c1Cl)[C@H]1CCNC1 | IC50 [3]: 21600 nM
24 | > 400 | CC(C)C(=O)N(Cc1ccc(C(F)(F)F)cc1F)[C@H]1CCNC1 | 
38 | 25 | O=C(C1CC1)N(Cc1ccc(Cl)cc1Cl)[C@H]1CCNC1 | 
25 | 60 | CCC(=O)N(Cc1ccc(Cl)cc1Cl)[C@H]1CCNC1 | 
13 | 28 | CC(C)C(=O)N(Cc1ccc(Cl)cc1Cl)[C@H]1CCNC1 | hepatocyte CLint (in vitro): 4.8 µL/min/1e6 cells; IC50 [4]: 40200 nM; IC50 [3]: > 40000 nM; half-life [10]: > 2 h; logD [13]: 0.8; IC50 (Cytochrome P450 2D6): 21800 nM
33 | 70 | CCCCC(=O)N(Cc1ccc(Cl)cc1Cl)[C@H]1CCNC1 | 
41 | 64 | O=C(C1CCC1)N(Cc1ccc(Cl)cc1Cl)[C@H]1CCNC1 | 
123 | 300 | O=C(C1CCOCC1)N(Cc1cccc(Cl)c1Cl)[C@H]1CCNC1 | 
91 | 114 | CC(C)C(=O)N(Cc1ccccc1Cl)[C@H]1CCNC1 | 
161 | 98 | CC(C)C(=O)N(Cc1ccc(F)cc1Cl)[C@H]1CCNC1 | 

Structure (SMILES) | IC50 [1] [nM] | IC50 [2] [nM] | also measured
CC(C)C(=O)N(Cc1ccc(F)cc1F)[C@H]1CCNC1 | > 400 | > 400 | 

— ChEMBL document CHEMBL1155868, “N-Benzyl-N-(pyrrolidin-3-yl)carboxamides as a new class of selective dual serotonin/noradrenaline reuptake inhibitors” (Bioorg Med Chem Lett, 2008)
